Measurements taken from the kinase profiling compilation of Christmann-Franck et al. (2016).
Where “and” joins values, the source holds several entries; their conditions need not be identical. Equal values may be shown once.

How the values were obtained:
Assay in all cases: KINOMEscan competition binding
Conditions in all cases: compound 10.0 µM
[1] = target: MARK3 (human) (UniProt P27448)
[2] = target: CAMK2D (human) (UniProt Q13557)
[3] = target: FGFR4 (human) (UniProt P22455)
[4] = target: CAMK1G (human) (UniProt Q96NX5)
[5] = target: MYLK4 (human) (UniProt Q86YV6)
[6] = target: MAPK8 (human) (UniProt P45983)
[7] = target: TAOK1 (human) (UniProt Q7L7X3)
[8] = target: RPS6KA6 KD2 (human) (UniProt Q9UK32)
[9] = target: CRK2 (P.falciparum) (UniProt P61075)
[10] = target: CAMK4 (human) (UniProt Q16566)
[11] = target: MYO3B (human) (UniProt Q8WXR4)
[12] = target: CDK2 (human) (UniProt P24941)
[13] = target: RIOK3 (human) (UniProt O14730)
[14] = target: MAP3K1 (human) (UniProt Q13233)
[15] = target: PTK2B (human) (UniProt Q14289)
[16] = target: AXL (human) (UniProt P30530)
[17] = target: ERN1 (human) (UniProt O75460)
[18] = target: RIOK2 (human) (UniProt Q9BVS4)
[19] = target: TLK2 (human) (UniProt Q86UE8)
[20] = target: EPHA2 (human) (UniProt P29317)
[21] = target: IRAK1 (human) (UniProt P51617)
[22] = target: ABL2 (human) (UniProt P42684)
[23] = target: PRKAA2 (human) (UniProt P54646)
[24] = target: NLK (human) (UniProt Q9UBE8)
[25] = target: CAMKK1 (human) (UniProt Q8N5S9)
[26] = target: DAPK3 (human) (UniProt O43293)
[27] = target: PRKACA (human) (UniProt P17612)
[28] = target: EPHA4 (human) (UniProt P54764)
[29] = target: MAP3K15 (human) (UniProt Q6ZN16)
[30] = target: PAK1 (human) (UniProt Q13153)
[31] = target: CDK16 (human) (UniProt Q00536)
[32] = target: SBK1 (human) (UniProt Q52WX2)
[33] = target: PRKACB (human) (UniProt P22694)
[34] = target: MAP3K9 (human) (UniProt P80192)
[35] = target: TNIK (human) (UniProt Q9UKE5)
[36] = target: PIK3C2G (human) (UniProt O75747)
[37] = target: PIP4K2C (human) (UniProt Q8TBX8)
[38] = target: SIK1 (human) (UniProt P57059)
[39] = target: SRMS (human) (UniProt Q9H3Y6)
[40] = target: HIPK2 (human) (UniProt Q9H2X6)

Sequence of MARK3 (human) (P27448 whole entry, looked up): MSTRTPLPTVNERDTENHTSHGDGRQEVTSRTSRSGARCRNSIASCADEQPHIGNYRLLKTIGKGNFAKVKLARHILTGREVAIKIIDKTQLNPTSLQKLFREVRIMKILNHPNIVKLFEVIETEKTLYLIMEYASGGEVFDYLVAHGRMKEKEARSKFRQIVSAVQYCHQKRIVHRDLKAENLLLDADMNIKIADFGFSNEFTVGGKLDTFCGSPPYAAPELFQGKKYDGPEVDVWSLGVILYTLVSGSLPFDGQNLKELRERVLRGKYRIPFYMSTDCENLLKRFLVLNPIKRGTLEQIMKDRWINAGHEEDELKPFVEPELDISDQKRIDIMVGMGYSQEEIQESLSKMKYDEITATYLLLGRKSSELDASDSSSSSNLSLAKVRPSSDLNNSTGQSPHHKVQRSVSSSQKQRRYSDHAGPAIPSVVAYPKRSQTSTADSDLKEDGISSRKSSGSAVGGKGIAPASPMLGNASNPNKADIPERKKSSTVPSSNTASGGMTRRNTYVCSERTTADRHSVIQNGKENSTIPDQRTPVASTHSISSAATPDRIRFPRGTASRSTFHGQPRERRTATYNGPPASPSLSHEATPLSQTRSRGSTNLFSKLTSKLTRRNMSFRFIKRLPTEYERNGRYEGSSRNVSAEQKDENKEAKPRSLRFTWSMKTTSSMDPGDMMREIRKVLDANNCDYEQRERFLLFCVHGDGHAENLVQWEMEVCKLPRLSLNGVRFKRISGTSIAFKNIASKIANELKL
Sequence of PTK2B (human) (Q14289 whole entry, looked up): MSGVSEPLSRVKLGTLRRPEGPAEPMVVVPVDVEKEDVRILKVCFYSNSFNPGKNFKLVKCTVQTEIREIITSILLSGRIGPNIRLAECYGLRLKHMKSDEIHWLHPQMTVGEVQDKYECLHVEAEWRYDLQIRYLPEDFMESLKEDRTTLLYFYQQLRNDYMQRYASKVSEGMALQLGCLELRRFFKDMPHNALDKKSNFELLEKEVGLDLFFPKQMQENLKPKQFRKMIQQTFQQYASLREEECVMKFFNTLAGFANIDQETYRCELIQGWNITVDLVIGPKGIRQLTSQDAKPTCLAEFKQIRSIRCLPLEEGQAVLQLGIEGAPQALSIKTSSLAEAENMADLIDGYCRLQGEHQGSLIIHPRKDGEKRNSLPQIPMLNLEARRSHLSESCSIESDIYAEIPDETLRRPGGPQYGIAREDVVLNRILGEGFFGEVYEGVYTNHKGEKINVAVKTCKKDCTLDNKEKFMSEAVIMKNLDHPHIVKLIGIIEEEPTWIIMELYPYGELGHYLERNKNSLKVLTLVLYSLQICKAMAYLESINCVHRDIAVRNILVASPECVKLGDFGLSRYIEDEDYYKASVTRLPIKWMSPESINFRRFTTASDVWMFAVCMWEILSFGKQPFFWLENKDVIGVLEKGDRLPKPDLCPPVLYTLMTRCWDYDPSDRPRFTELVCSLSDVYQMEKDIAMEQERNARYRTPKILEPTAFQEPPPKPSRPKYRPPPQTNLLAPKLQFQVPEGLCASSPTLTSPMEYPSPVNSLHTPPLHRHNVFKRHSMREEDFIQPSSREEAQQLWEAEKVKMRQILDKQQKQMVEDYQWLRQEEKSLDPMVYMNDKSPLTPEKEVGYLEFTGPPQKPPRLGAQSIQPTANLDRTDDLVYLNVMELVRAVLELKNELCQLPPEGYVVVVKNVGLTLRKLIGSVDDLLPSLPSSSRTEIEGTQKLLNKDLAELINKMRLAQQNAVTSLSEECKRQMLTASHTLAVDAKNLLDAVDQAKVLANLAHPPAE
Sequence of ABL2 (human) (P42684 whole entry, looked up): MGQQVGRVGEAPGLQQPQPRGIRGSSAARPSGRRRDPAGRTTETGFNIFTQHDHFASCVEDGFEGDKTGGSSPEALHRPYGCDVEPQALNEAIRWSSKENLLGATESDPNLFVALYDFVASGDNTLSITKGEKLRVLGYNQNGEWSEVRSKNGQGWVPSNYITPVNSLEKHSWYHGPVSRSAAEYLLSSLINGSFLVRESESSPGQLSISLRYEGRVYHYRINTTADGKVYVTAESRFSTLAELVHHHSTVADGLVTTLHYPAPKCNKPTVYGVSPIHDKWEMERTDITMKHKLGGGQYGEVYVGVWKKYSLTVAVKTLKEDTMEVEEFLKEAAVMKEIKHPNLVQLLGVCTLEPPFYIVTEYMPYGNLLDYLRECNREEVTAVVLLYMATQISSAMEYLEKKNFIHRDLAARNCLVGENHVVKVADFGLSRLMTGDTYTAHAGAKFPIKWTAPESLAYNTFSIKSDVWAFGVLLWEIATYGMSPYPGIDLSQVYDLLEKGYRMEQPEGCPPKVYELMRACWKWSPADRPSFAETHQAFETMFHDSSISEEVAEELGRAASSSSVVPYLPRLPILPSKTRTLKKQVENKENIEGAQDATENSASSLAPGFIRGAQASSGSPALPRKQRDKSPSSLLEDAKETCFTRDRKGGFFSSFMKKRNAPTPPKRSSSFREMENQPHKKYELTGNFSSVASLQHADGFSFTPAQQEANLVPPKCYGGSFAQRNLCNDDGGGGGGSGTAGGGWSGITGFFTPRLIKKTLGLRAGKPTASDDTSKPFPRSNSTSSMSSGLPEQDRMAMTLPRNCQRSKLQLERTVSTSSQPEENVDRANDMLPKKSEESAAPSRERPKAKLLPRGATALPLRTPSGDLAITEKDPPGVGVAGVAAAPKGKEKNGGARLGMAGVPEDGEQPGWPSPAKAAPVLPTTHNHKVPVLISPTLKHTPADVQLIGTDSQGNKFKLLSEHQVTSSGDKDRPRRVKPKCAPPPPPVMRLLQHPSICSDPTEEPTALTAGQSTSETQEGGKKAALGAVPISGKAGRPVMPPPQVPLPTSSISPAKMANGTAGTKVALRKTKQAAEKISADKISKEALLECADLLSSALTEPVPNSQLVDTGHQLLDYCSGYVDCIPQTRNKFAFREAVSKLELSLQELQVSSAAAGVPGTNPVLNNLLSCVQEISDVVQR
Sequence of SRMS (human) (Q9H3Y6 whole entry, looked up): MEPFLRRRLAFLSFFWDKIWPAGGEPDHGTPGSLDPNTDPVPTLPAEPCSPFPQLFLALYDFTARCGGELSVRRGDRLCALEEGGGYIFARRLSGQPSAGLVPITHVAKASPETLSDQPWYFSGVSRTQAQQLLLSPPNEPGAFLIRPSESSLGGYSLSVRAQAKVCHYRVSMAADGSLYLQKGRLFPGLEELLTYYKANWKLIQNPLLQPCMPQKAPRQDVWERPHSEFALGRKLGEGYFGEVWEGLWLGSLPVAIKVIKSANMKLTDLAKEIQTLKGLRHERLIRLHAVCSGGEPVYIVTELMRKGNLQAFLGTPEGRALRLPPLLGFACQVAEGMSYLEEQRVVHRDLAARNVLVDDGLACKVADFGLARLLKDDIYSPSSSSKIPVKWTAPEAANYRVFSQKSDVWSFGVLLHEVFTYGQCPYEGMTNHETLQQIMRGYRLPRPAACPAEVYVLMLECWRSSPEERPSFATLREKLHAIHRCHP
Sequence of CAMK1G (human) (Q96NX5 whole entry, looked up): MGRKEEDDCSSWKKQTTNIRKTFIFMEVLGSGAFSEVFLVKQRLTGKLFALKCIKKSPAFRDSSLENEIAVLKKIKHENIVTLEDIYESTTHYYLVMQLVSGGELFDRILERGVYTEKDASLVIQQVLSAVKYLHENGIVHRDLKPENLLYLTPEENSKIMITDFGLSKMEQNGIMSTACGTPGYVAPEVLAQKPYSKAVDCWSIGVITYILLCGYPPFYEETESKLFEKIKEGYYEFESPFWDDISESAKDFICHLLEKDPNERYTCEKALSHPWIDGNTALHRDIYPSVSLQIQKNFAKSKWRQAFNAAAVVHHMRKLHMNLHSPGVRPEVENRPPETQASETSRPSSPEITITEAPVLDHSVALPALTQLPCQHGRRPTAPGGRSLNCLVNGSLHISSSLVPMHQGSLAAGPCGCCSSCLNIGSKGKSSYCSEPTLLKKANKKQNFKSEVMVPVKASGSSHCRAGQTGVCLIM
Sequence of TAOK1 (human) (Q7L7X3 whole entry, looked up): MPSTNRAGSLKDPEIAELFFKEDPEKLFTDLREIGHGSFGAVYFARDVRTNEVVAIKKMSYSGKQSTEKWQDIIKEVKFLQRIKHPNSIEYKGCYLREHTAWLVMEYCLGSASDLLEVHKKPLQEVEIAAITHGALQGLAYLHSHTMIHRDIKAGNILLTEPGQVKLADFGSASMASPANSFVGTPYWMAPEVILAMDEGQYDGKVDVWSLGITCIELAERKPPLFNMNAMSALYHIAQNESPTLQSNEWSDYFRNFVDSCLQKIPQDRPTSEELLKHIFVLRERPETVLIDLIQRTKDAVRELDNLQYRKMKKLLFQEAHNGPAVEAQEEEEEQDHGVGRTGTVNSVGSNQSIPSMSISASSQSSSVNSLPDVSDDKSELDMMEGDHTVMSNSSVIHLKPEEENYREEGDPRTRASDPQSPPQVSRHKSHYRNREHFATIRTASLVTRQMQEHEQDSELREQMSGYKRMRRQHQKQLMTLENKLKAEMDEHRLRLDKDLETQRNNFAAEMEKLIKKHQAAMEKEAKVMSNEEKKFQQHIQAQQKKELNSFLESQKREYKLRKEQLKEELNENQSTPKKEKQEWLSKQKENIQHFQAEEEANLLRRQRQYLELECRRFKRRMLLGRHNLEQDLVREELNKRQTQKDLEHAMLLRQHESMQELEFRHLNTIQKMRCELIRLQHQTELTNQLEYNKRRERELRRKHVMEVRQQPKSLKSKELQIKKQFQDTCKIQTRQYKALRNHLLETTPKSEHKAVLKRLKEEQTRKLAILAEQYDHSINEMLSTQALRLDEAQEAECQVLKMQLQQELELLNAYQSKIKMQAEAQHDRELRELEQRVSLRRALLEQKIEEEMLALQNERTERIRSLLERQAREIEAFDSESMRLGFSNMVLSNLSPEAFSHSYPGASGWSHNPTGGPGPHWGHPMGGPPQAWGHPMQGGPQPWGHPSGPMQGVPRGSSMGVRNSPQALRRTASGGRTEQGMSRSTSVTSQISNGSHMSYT

SMILES	kinase still bound, per cent of control [1] [%]	kinase still bound, per cent of control [2] [%]	kinase still bound, per cent of control [3] [%]	kinase still bound, per cent of control [4] [%]	kinase still bound, per cent of control [5] [%]	kinase still bound, per cent of control [6] [%]	kinase still bound, per cent of control [7]	kinase still bound, per cent of control [8] [%]	kinase still bound, per cent of control [10] [%]	kinase still bound, per cent of control [11] [%]	kinase still bound, per cent of control [12] [%]	kinase still bound, per cent of control [13] [%]	kinase still bound, per cent of control [14] [%]	kinase still bound, per cent of control [15] [%]	kinase still bound, per cent of control [16] [%]	kinase still bound, per cent of control [17] [%]	kinase still bound, per cent of control [18] [%]	kinase still bound, per cent of control [19] [%]	kinase still bound, per cent of control [20] [%]	kinase still bound, per cent of control [21] [%]	also measured
COCC(=O)NC/C=C/c1ccc2ncnc(Nc3ccc(Oc4ccc(C)nc4)c(C)c3)c2c1	100	100	100	96	100	66	94%	88	86	100	92	100	100	80	68	82	100	100	100	100	kinase still bound, per cent of control [9]: 100%; kinase still bound, per cent of control [22]: 100%; kinase still bound, per cent of control [23]: 100%; kinase still bound, per cent of control [24]: 100%; kinase still bound, per cent of control [25]: 96%; kinase still bound, per cent of control [26]: 96%; kinase still bound, per cent of control [27]: 100%; kinase still bound, per cent of control [28]: 98%; kinase still bound, per cent of control [29]: 100%; kinase still bound, per cent of control [30]: 81%; kinase still bound, per cent of control [31]: 74%; kinase still bound, per cent of control [32]: 100%; kinase still bound, per cent of control [33]: 100%; kinase still bound, per cent of control [34]: 74%; kinase still bound, per cent of control [35]: 89%; kinase still bound, per cent of control [36]: 24%; kinase still bound, per cent of control [37]: 84%; kinase still bound, per cent of control [38]: 100%; kinase still bound, per cent of control [39]: 71%
CNC(=O)c1cc(Oc2ccc(NC(=O)Nc3ccc(Cl)c(C(F)(F)F)c3)cc2)ccn1	74	95	65	99	100	100	23%	38	100	28	33	100	64	100	7.8	74	97	91	18	70	kinase still bound, per cent of control [9]: 94%; kinase still bound, per cent of control [22]: 35%; kinase still bound, per cent of control [23]: 74%; kinase still bound, per cent of control [24]: 32%; kinase still bound, per cent of control [25]: 89%; kinase still bound, per cent of control [26]: 88%; kinase still bound, per cent of control [27]: 63%; kinase still bound, per cent of control [28]: 42%; kinase still bound, per cent of control [29]: 100%; kinase still bound, per cent of control [30]: 62%; kinase still bound, per cent of control [31]: 72%; kinase still bound, per cent of control [32]: 89%; kinase still bound, per cent of control [33]: 100%; kinase still bound, per cent of control [34]: 88%; kinase still bound, per cent of control [35]: 27%; kinase still bound, per cent of control [36]: 80%; kinase still bound, per cent of control [37]: 100%; kinase still bound, per cent of control [38]: 100%
COc1cc(N2CCN(C)CC2)ccc1Nc1ncc2c(n1)N(C)c1ccccc1C(=O)N2C	100	23	5.6	100	100	100	17% and 4.8%	4.9	100	100	100	100	100	100	100	100	100	100	100	100	kinase still bound, per cent of control [40]: 100%; kinase still bound, per cent of control [22]: 100%; kinase still bound, per cent of control [23]: 100%; kinase still bound, per cent of control [24]: 100%; kinase still bound, per cent of control [25]: 100%; kinase still bound, per cent of control [26]: 100%; kinase still bound, per cent of control [27]: 100%; kinase still bound, per cent of control [28]: 100%; kinase still bound, per cent of control [29]: 100%; kinase still bound, per cent of control [30]: 100%; kinase still bound, per cent of control [31]: 100%; kinase still bound, per cent of control [32]: 8.9%; kinase still bound, per cent of control [33]: 100%; kinase still bound, per cent of control [34]: 100%; kinase still bound, per cent of control [35]: 100%; kinase still bound, per cent of control [36]: 100%; kinase still bound, per cent of control [38]: 100%; kinase still bound, per cent of control [39]: 100%
CCN(CC)CCCCNc1ncc2c(n1)N(C)C(=O)N(c1c(Cl)c(OC)cc(OC)c1Cl)C2	100	100	0.75	100	100	100	0.25% and 2.9%	100	100	100	100	100	100	100	100	100	100	100	100	100	kinase still bound, per cent of control [40]: 100%; kinase still bound, per cent of control [22]: 100%; kinase still bound, per cent of control [23]: 100%; kinase still bound, per cent of control [24]: 100%; kinase still bound, per cent of control [25]: 100%; kinase still bound, per cent of control [26]: 100%; kinase still bound, per cent of control [27]: 100%; kinase still bound, per cent of control [28]: 100%; kinase still bound, per cent of control [29]: 100%; kinase still bound, per cent of control [30]: 100%; kinase still bound, per cent of control [31]: 100%; kinase still bound, per cent of control [32]: 100%; kinase still bound, per cent of control [33]: 100%; kinase still bound, per cent of control [34]: 100%; kinase still bound, per cent of control [35]: 100%; kinase still bound, per cent of control [36]: 100%; kinase still bound, per cent of control [38]: 100%; kinase still bound, per cent of control [39]: 100%
